Reference: article doi:10.1101/2025.03.14.643303, “A genome-scale drug discovery pipeline uncovers new therapeutic targets and a unique p97 allosteric binding site in Schistosoma mansoni” (bioRxiv, 2025)
Entries after “also recorded” stand apart in the source; their conditions may differ. Like-named read-outs stand apart in the source and are kept apart here.

Legend:
[1] = test system: S. mansoni vcp/p97 (Smp_018240); assay: High-throughput screening (HTS) assay, Kinase-Glo, 10 μM single concentration; assay type: biochemical, Schistosoma mansoni; conditions: for Screen Inhibition: 10 μM compound, normalized to CB-5083, Fig. 4A; for inhibition of S. mansoni p97 function in the screen: high-throughput screen
From the text: Kinase-Glo (Promega, part K1214) was purchased from Promega. Microtiter plates (384 wells) were purchased from Perkin Elmer. All chemicals included in the UTSW library were sourced from commercial sources [ChemDiv (150,000 compounds), ChemBridge (125,500), ComGenex (22,000), Prestwick Chemical, (1,100) and TimTec (500)] or UT Southwestern chemists (https://www.utsouthwestern.edu/research/core-facilities/high-throughput-screening/libraries/). For initial screening, compounds were dispensed by Echo 555 robot for a final concentration of 10 μM (0.2% DMSO). Luminescence was read by EnVision multimode plate reader (Perkin-Elmer). Assay conditions were consistent between manual and high-throughput assays [10 μM ATP, 50 mM Tris (pH 7.5), 20 mM MgCl2, 1 mM EDTA, 0.5 mM tris(2-carboxyethyl)phosphine (TCEP)]. The plates were then incubated for 50 min at room temperature before addition of Kinase-Glo reagent and further incubation in the dark for 10 minutes before reading luminescence. […] Hit compounds were validated using a dose-response curve (19.8 μM, 9.92 μM, 4.96 μM, 3.72 μM, 2.48 μM, 1,24 μM, 0.619 μM, 0.342 μM, 0.256 μM, 0.171 μM, 0.0854 μM, 0.0427 μM, and 0 μM) in triplicate. Compounds were also subjected to a counter screen using a dose-response curve against the full-length human p97 enzyme to determine preliminary selectivity.

[2] = molecular target: S. mansoni p97 (Smp_018240) (Schistosoma mansoni, UniProt G4M0P7); assay: biochemical; conditions: for IC50: read-out: S. mansoni IC50
Protocol: E. coli BL21 (DE3) containing the desired plasmid were grown in LB medium containing […] kanamycin while shaking at 37 °C to an OD600 of 0.6–0.8. The temperature was reduced to 18°C and 0.8 mM isopropyl-beta-D-thiogalactopyranoside (IPTG) was added. The bacterial culture was harvested 16hr later by centrifugation. The resulting pellet was suspended in 60 mL lysis buffer/2L bacterial culture [20 mM Tris (pH 7.4), 300 mM NaCl, 5 mM MgCl2, 20 mM imidazole, 1% Triton X-100, 1 mg/mL lysozyme, 10% glycerol, 3 mM β-mercaptoethanol, 0.2 mM PMSF, and protease inhibitor tablet (Roche)]. […] The lysate was centrifuged at 40,000 × rpm for 35 min at 4°C. The resulting supernatant was incubated with Ni-NTA beads equilibrated to lysis buffer for 1 hr at 4°C before being loaded onto a gravity column. The bead bed was washed with wash buffer [20 mM Tris (pH 7.4), 500 mM NaCl, 5 mM MgCl2, 40 mM imidazole, 0.05% Triton X-100, 10% glycerol, 3 mM β-mercaptoethanol, 0.2 mM PMSF, 0.001 mg/mL Aprotinin, and 0.002 mg/mL Leupeptin], then eluted in the same buffer with 250 mM imidazole in wash buffer. Fractions containing p97 were concentrated using Pierce Protein Concentrators (100k MWCO) and loaded onto a gel-filtration column (Superdex 200PG) and eluted using SEC buffer [20 mM Tris (pH 7.4), 180 mM NaCl, 5 mM MgCl2, and 10% glycerol] at 0.5 mL/min flow rate on a BioRad NGC Chromatography System. Fractions corresponding to an apparent molecular weight of 500 – 600 kDa were collected and analyzed by 4–20% SDS/PAGE to evaluate purity. Concentration was determined using a BSA standard. Fractions containing purified protein were aliquoted, snap frozen in liquid nitrogen, and stored at −80 °C until use.
For manual ATP consumption assays, 1 μM p97 was incubated with 1% DMSO or inhibitor (1% DMSO final) in assay buffer [50 mM Tris (pH 7.5), 20 mM MgCl2, 1 mM EDTA, 0.5 mM tris(2-carboxyethyl)phosphine (TCEP)] for 5 minutes prior to the addition of 20 μM ATP in a 384-well plate for a total reaction volume of 10 μL, and a final concentration of 500nM enzyme and 10 μM ATP. The reaction was allowed to proceed for 50 minutes at room temperature before adding equivalent volume of Kinase-Glo Plus reagent (Promega), and a further incubation of 10 minutes in the dark.
IC50 values were calculated using GraphPad Prism.

H. sapiens p97 (P55072) = molecular target: T1, H. sapiens p97 (P55072) (Homo sapiens, UniProt P55072); assay: p97 ATPase activity, ATP consumption assay (Kinase-Glo), IC50 / counter screen; assay type: biochemical
T1 construct: 6xHis (C); made in house; host or cells: E. coli BL21 (DE3)

adult S. mansoni worms = assay: Treatment of adult S. mansoni worms in culture with inhibitors (attachment to tissue culture substrate, morphology; single 10 μM and dose-response EC50); assay type: cell-based, Schistosoma mansoni; conditions: for EC50: Schistosoma mansoni, read-out: S. mansoni EC50; for effect on adult worms: benzoxazole propiolamide series, treated 72 hours, monitored until D5; for effect on adult worms / time to detachment of adult worms in culture: 10 μM
Protocol: Adult S. mansoni (NMRI strain) (6–7 weeks post-infection) worms were harvested from infected female Swiss Webster mice by hepatic portal vein perfusion using 37°C DMEM (Mediatech, Manassas, VA), 8% Horse Serum, and heparin.
Roughly 5 adult worm pairs were placed in 3mL Basch medium in a 12-well culture vessel, and incubated at 37°C, 5% CO2 for the length of the experiment. Compound was administered at D0, D1, and D2, media and drug refreshed every 24 hr. Worms were then allowed to remain in culture until D5, where a final assessment of worm attachment to tissue culture substate was made by light microscopy. Observations on movement and morphology were also recorded. A negative control (0.1% DMSO) and positive control (PZQ; 10 μM in 0.1% DMSO) were included in each experiment, and each experiment was repeated in triplicate for validation. For compounds that caused complete detachment in replicate experiments, the treatment was expanded to three concentrations (10 μM, 5 μM, and 1 μM) following the same treatment schedule and controls as detailed above. […] Each titration experiment was performed in triplicate according to the treatment regimen described above, using DMSO and PZQ as appropriate controls. Morphologies and motility were assessed by light microscopy, and dose-response curves were calculated using the primary readout of parasite attachment to tissue culture substrate in GraphPad Prism. […]
[…] Values were calculated using Prism.

HepG2 cells = assay: HepG2 cytotoxicity assay (Cell Titer Glo 2.0); assay type: cell-based, human; conditions: Homo sapiens
Protocol: HepG2 cells (ATCC) were plated at 2500 cells/well in 50 μL/well, dispersing cells using a 25g needle to break up clumps prior to plating. Plates were incubated for 24hr at 37C, 5% CO2. Following 24hr, 50 μL media containing 0.6% DMSO was added to a set of wells on one plate. The plate and Cell Titer Glo 2.0 reagent were brought to RT. A T=0 read was taken by adding 40 μL reagent/well, rocking the plate at 100 rpm for 2 min, then reading luminescence ~10 min later. […] 50 μL 2x concentrated compound was added to wells containing cells in 50 μL 24 hr after plating. Concentrations were tested in triplicate at following values: 30, 10, 3.3, 1.1, 0.37, 0.12, and 0.04 μM. Plates were incubated for 72 hr at 37C, 5% CO2. Following equilibration to room temperature, 40 μL undiluted reagent was added to each well, the plate rocked at 100 rpm for 2 min and then read for luminescent signal ~10 min later.
Values are plotted in excel and the 50% point determined by interpolation. Values were revisualized in Prism.

[3] = Smp97, re-tested screen compounds, 100 μM-1 nM, Fig. 4A
[4] = Hsp97, re-tested screen compounds, 100 μM-1 nM, Fig. 4A
[5] = H. sapiens vs S. mansoni p97 IC50, Suppl. Fig. 11D

T1 sequence (P55072 whole entry): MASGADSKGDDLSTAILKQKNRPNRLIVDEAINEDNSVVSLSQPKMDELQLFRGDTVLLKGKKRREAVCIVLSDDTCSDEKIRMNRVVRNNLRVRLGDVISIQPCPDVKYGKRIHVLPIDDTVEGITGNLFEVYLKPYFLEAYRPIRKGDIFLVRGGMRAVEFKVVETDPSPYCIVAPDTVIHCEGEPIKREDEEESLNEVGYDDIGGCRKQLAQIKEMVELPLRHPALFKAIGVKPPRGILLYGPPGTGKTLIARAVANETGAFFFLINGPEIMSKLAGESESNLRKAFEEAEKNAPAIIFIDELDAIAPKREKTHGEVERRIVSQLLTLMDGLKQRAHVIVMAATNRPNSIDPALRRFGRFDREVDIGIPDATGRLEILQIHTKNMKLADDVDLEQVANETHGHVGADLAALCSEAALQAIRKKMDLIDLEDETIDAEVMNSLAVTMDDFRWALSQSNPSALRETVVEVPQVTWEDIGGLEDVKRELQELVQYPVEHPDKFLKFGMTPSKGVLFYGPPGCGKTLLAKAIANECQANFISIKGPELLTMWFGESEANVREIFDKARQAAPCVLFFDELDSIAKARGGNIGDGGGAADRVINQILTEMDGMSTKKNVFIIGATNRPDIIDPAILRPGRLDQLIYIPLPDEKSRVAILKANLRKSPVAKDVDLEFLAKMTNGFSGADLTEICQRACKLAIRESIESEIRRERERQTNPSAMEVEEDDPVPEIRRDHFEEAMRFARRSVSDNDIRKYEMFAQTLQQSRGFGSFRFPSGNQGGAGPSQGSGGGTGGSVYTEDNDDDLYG
Chain of S. mansoni p97 (Smp_018240) (G4M0P7 entry or part of it): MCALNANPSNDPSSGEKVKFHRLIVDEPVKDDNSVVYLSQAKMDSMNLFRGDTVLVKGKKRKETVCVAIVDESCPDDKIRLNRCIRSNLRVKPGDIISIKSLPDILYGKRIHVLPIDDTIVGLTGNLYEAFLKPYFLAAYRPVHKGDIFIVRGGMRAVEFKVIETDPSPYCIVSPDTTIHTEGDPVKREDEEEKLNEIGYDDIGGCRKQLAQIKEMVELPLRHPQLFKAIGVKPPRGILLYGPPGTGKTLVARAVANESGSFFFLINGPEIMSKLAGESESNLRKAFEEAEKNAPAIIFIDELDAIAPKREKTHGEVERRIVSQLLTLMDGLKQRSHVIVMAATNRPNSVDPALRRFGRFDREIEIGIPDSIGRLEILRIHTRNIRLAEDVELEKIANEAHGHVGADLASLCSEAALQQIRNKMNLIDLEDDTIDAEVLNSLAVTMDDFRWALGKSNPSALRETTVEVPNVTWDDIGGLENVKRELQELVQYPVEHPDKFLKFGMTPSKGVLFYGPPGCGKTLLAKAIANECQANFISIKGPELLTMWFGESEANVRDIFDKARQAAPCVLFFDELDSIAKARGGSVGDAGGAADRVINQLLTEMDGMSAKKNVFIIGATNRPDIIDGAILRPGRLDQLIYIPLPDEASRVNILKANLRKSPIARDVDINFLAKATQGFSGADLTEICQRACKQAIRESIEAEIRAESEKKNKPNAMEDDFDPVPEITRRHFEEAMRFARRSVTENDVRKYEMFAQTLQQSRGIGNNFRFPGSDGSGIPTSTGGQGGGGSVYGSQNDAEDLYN

SMILES	Screen Inhibition [1]	inhibition of S. mansoni p97 function in the screen [1]	IC50 [2, 3]	IC50 (H. sapiens p97 (P55072); [4])	IC50 ([2]; p97 enzyme, Suppl. Fig. 11D)	IC50 (H. sapiens p97 (P55072); p97 enzyme, Suppl. Fig. 11D)	EC50 (adult S. mansoni worms)	effect on adult worms (adult S. mansoni worms)	also measured
O=C(CCc1ccccc1)Nc1ccc2oc(-c3ccccn3)nc2c1 [Compound 326, 3-phenyl-N-(2-(pyridin-2-yl)benzo[d]oxazol-5-yl)propanamide]	2.2%	inactive	> 100 µM	> 100 µM					
O=C(C#Cc1ccccc1)Nc1ccc2oc(-c3cccnc3)nc2c1 [Compound 244, 3-phenyl-N-(2-(pyridin-3-yl)benzo[d]oxazol-5-yl)propiolamide]	16%				> 100 µM	> 100 µM	25 µM	did not have any adverse effects on worm health and survival	activity on the enzyme ([2]; schistosome p97): minimal activity on the enzyme
O=C(/C=C\c1ccccc1)Nc1ccc2oc(-c3ccccc3)nc2c1 [Compound 324, (Z)-3-phenyl-N-(2-phenylbenzo[d]oxazol-5-yl)acrylamide]	1.1%	inactive	> 100 µM	> 100 µM					
O=C(C=Cc1ccccc1)Nc1ccc2oc(-c3ccccc3)nc2c1 [Compound 135, N-(2-phenylbenzo[d]oxazol-5-yl)cinnamamide]	1.1%	inactive	> 100 µM	> 100 µM					
O=C(C#Cc1ccccc1)Nc1ccc2oc(-c3ccccc3)nc2c1 [Compound 245, 3-phenyl-N-(2-phenylbenzo[d]oxazol-5-yl)propiolamide]	36%				3.8 ± 0.19 µM	> 100 µM	12 µM	did cause detachment, it did not lead to parasite death	Fold Selectivity [2, 5]: > 30
O=C(C#Cc1ccccc1)Nc1ccc2oc(-c3ccncc3)nc2c1 [Compound 242, 3-phenyl-N-(2-(pyridin-4-yl)benzo[d]oxazol-5-yl)propiolamide]	47%				1.4 ± 0.11 µM	12 ± 0.31 µM	9.9 µM	led to death in adult parasites; also recorded: ultimately leading to their death	Fold Selectivity [2, 5]: 8.6; time to detachment of adult worms in culture (adult S. mansoni worms): ≤ 48 h
O=C(C#Cc1ccccc1)Nc1ccc2oc(-c3ccccn3)nc2c1 [Compound 243, 3-phenyl-N-(2-(pyridin-2-yl)benzo[d]oxazol-5-yl)propiolamide]	46%		2.1 ± 0.75 µM	20 ± 0.54 µM	2.1 ± 0.75 µM	20 ± 0.54 µM		led to death in adult parasites; also recorded: ultimately leading to their death	GI50 (HepG2 cells; HepG2, 72 h): 5.6 µM; IC50 (HepG2 cells; HepG2, 72 h): 9.6 µM; GI50 (HepG2 cells; HepG2, read-out: HepG2 GI50): 5.6 µM; IC50 (HepG2 cells; HepG2, read-out: HepG2 IC50): 9.6 µM; Fold Selectivity [2]: 9.5; IC50 ([2]; Sm p97, 100 μM – 1 nM, Suppl. Fig. 9C): 2.1 ± 0.75 µM; IC50 ([2]; recombinant parasite enzyme, 100 μM-1 nM, Fig. 4D): 2.1 ± 0.75 µM; IC50 (H. sapiens p97 (P55072); Hs p97, 100 μM – 1 nM, Suppl. Fig. 9C): 20 ± 0.54 µM; IC50 (H. sapiens p97 (P55072); recombinant human enzyme, 100 μM-1 nM, Fig. 4D): 20 ± 0.54 µM; time to detachment of adult worms in culture (adult S. mansoni worms): ≤ 48 h; EC50 (adult S. mansoni worms; adult parasites, fraction of worms attached, 72 hours of drug treatment, in culture until D5, 50 μM - 10 nM, Suppl. Fig. 9C): 3.5 µM
